Data as given in patent US20110293600A1, “Anticancer Composition Comprising Antitumor Agent and Substance Having Inhibitory Effects on L1CAM Activity and Expression” (KOREA RESEARCH INSTITUTE OF BIOSCIENCE AND BIOTECHNOLOGY, priority 2008, published 2011).

Columns and labels:
[1] = system: SCK cells subcutaneously transplanted; assay: Cancer growth in mouse xenograft model; type: in vivo, Nude mice Balb/c nu/nu; conditions: Example 3, FIG. 2, A10-A3 10 mg/kg three times per week, cisplatin 3 mg/kg twice per week
Procedure: Nude mice Balb/c nu/nu were purchased via Central Lab. Animal Inc. from Japan SLC. The mice were 6 to 8 weeks old, weighed 18 to 22 g and acclimated for one week in a lab of the Korean Research Institute of Bioscience and Biotechnology. SCK cells (3×10^7) were subcutaneously transplanted into 40 mice, and were randomly divided into four groups when grown to a tumor mass having a size of 100 to 200 mm^3 after one week. A10-A3 was administered to the mice at a dose of 10 mg/kg three times per week. Cisplatin was administered to the mice at a dose of 3 mg/kg twice per week. As the control group, mIgG was administered at the same level, instead of A10-A3 and saline was administered at the same level, instead of cisplatin. The weight of nude mice and tumors were measured three times per week.

[2] = system: L1CAM mRNA in cholangiocarcinoma cell lines (SCK); assay: Detection of mRNA expression of L1CAM by RT-PCR; type: cell-based; conditions: SCK transduced with siRNA, cultured 72 hours; compared to siRNA non-specific for L1CAM; FIG. 5(A) upper
Procedure: In order to knock down expression of L1CAM in cholangiocarcinoma cell lines (SCK), the cells were transduced with siRNA (5′-[…]-3′, Sequence ID No. 1) specific for L1CAM and siRNA (5′-CAGTCGCGTTTGCGACTGG-3′, Sequence ID No. 2) non-specific for L1CAM and then cultured for 72 hours. In order to isolate the total RNA of the cultured cholangiocarcinoma cells, the cells were treated with a 1 ml trizol reagent (Invitrogen, Inc.) at room temperature for 5 minutes. 0.2 ml of chloroform was added to the cells, and the mixture was violently shaken about 15 times and allowed to react at room temperature for 3 minutes. The resulting solution was centrifuged at 4° C. and 14,000 rpm for […], 400 μl of the supernatant was transferred to another tube and the same amount of isopropanol was added to the residue and the mixture was allowed to react at room temperature for 10 minutes. The reaction solution was centrifuged at 4° C. at 14,000 rpm for 15 minutes, the supernatant was discarded, and the residue was washed with 75% ethanol. oligo(d)T, dNTP, RNase inhibitor and reverse transcriptase were added to 2 ug of the RNA thus extracted and the mixture was allowed to react at 42° C. for one hour to synthesize cDNA. […]

[3] = system: L1CAM protein in cholangiocarcinoma cell lines (SCK); assay: Detection of protein expression of L1CAM using Western blotting; type: cell-based; conditions: SCK transduced with siRNA, cultured 72 hours; compared to siRNA non-specific for L1CAM; FIG. 5(A) lower
Procedure: In order to knock down expression of L1CAM in cholangiocarcinoma cell lines (SCK), the cells were transduced with siRNA (5′-[…]-3′, Sequence ID No. 1) specific for L1CAM and siRNA (5′-CAGTCGCGTTTGCGACTGG-3′, Sequence ID No. 2) non-specific for L1CAM and then cultured for 72 hours and expression of L1CAM was detected in protein level using Western blotting. In order to isolate the total protein of cell lines treated with siRNA, the cell lines were treated with 500 μl of cell lysis solution (RIPA buffer), and the proteins thus obtained were isolated in 10% SDS-PAGE, transferred to a nitrocellulose membrane and subjected to Western blotting. The nitrocellulose membrane was allowed to react in PBST (PBS+0.1% Tween 20) buffer containing 5% skim milk for one hour and washed two or more times with the PBST buffer. Anti-L1CAM antibody (A10-A3) was added as a primary antibody to the reacted nitrocellulose membrane, followed by allowing to react for 2 hours. The resulting membrane was washed with the PBST buffer five times and reacted with anti-mouse IgG HRP (horseradish peroxidase) conjugate (1:5000 Sigma) for one hour. The reaction solution was washed five times with the PBST buffer and was colored with enhanced chemiluminescence reagent (ECL) (Amersham biosciences) as a detection reagent.

Molecule	proliferation inhibition (tumor growth) [1]	total amount of L1CAM expressed (mRNA) [2]	total amount of protein expressed (L1CAM) [3]
N.N.[Cl][Pt][Cl] [cisplatin]	about 30%		
siRNA specific for L1CAM: siRNA (5′-GCCAATGCCTACATCTACGTT-3′, Sequence ID No. 1) specific for L1CAM (listed as DNA, chemistry not given here)		decrease	decrease
